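Method: 48-hour compound exposure of cells in 96-well plates, five concentrations, linear interpolation of endpoints. At the GI50, growth is halved.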 Active and inactive are the calls of the source. Rule as the data show it: active = GI50 up to about 1.1 µM and inactive = higher.
Experiments:
Test in all cases: growth of human tumour cells (NCI), 48 h
SNB-75 = test system: SNB-75
M14 = test system: M14
NCI-H226 = test system: NCI-H226
EKVX = test system: EKVX
Malme-3M = test system: Malme-3M
OVCAR-5 = test system: OVCAR-5
RPMI-8226 = test system: RPMI-8226
HOP-92 = test system: HOP-92
SF-268 = test system: SF-268
HOP-62 = test system: HOP-62
OVCAR-4 = test system: OVCAR-4
786-0 = test system: 786-0
HCC 2998 = test system: HCC 2998
ACHN = test system: ACHN
SNB-19 = test system: SNB-19
SR = test system: SR

Row | Structure (SMILES) | GI50 (SNB-75) | GI50 (M14) | GI50 (NCI-H226) | GI50 (EKVX) | GI50 (Malme-3M) | GI50 (OVCAR-5) | GI50 (RPMI-8226) | GI50 (HOP-92) | GI50 (SF-268) | GI50 (HOP-62) | GI50 (OVCAR-4) | GI50 (786-0) | GI50 (HCC 2998) | GI50 (ACHN) | GI50 (SNB-19) | GI50 (SR)
1 | c1c[nH]c(Cc2nc(Cc3c[nH]cn3)c[nH]2)n1 | 35.6 µM (inactive) | 10.5 µM (inactive) | 11.2 µM (inactive) | 4.49 µM (inactive) | 5.07 µM (inactive) | 1.53 µM (inactive) | 10.1 µM (inactive) | 22 µM (inactive) | 4.65 µM (inactive) | 17.5 µM (inactive) | 4.45 µM (inactive) | 11.7 µM (inactive) | 2.74 µM (inactive) | 3.51 µM (inactive) | 22.5 µM (inactive) | –
2 | CC1(C)COC(C2(C)C(=O)C=C(c3ccccc3)c3ccccc32)=N1 (stereo not given) | 33.4 µM (inactive) | 46.1 µM (inactive) | 52.1 µM (inactive) | 45.4 µM (inactive) | 11.5 µM (inactive) | – | 34.9 µM (inactive) | 21.8 µM (inactive) | 58.2 µM (inactive) | 64.9 µM (inactive) | 34.8 µM (inactive) | 59.8 µM (inactive) | – | 34.9 µM (inactive) | 50.5 µM (inactive) | 37.2 µM (inactive)
3 | COc1cc(/C=C\c2ccncc2)cc(OC)c1OC | 37.8 µM (inactive) | 42.9 µM (inactive) | > 100 µM (inactive) | 70.8 µM (inactive) | > 100 µM (inactive) | 63.5 µM (inactive) | 38.3 µM (inactive) | 36.5 µM (inactive) | > 100 µM (inactive) | > 100 µM (inactive) | > 100 µM (inactive) | > 100 µM (inactive) | – | > 100 µM (inactive) | > 100 µM (inactive) | –
4 | O=C1CCNC/C1=C\c1ccccc1 | 37.8 µM (inactive) | 14 µM (inactive) | 24 µM (inactive) | > 100 µM (inactive) | – | 24.7 µM (inactive) | 24 µM (inactive) | – | 19.6 µM (inactive) | 29.1 µM (inactive) | 15.9 µM (inactive) | 15.6 µM (inactive) | 20.1 µM (inactive) | 22.9 µM (inactive) | 19.4 µM (inactive) | 25.2 µM (inactive)
5 | O=C1C2Nc3ccccc3SC2C(=O)N1c1ccc(Br)cc1 (stereo not given) | 24.5 µM (inactive) | 33.5 µM (inactive) | 7.24 µM (inactive) | 23.4 µM (inactive) | 27.2 µM (inactive) | > 100 µM (inactive) | 13.1 µM (inactive) | 10.9 µM (inactive) | 73.1 µM (inactive) | 17.1 µM (inactive) | 12.8 µM (inactive) | 18.9 µM (inactive) | 45.8 µM (inactive) | 17.6 µM (inactive) | 34.3 µM (inactive) | –
6 | CCO/S(=N/S(=O)(=O)c1ccccc1)c1ccccc1[N+](=O)[O-] (stereo not given) | > 100 µM (inactive) | > 100 µM (inactive) | > 100 µM (inactive) | > 100 µM (inactive) | > 100 µM (inactive) | > 100 µM (inactive) | > 100 µM (inactive) | – | > 100 µM (inactive) | > 100 µM (inactive) | 44.1 µM (inactive) | > 100 µM (inactive) | > 100 µM (inactive) | – | > 100 µM (inactive) | > 100 µM (inactive)
7 | COc1ccc(/C=N/N=C(\N)NO)c(OC)c1 | – | – | 34.1 µM (inactive) | 38.3 µM (inactive) | 68.7 µM (inactive) | 9.77 µM (inactive) | 84.3 µM (inactive) | 11.2 µM (inactive) | 48.3 µM (inactive) | 16.2 µM (inactive) | > 100 µM (inactive) | 57.5 µM (inactive) | 12.2 µM (inactive) | 21 µM (inactive) | > 100 µM (inactive) | –
8 | NC(=S)NNc1c([N+](=O)[O-])cnn(-c2ccccc2)c1=O | 19.4 µM (inactive) | 15 µM (inactive) | 19.1 µM (inactive) | – | 19.2 µM (inactive) | 18.4 µM (inactive) | 20.7 µM (inactive) | 19.9 µM (inactive) | 21.1 µM (inactive) | 19.2 µM (inactive) | 17.4 µM (inactive) | 20.3 µM (inactive) | 18.7 µM (inactive) | 18.7 µM (inactive) | 19 µM (inactive) | 4.05 µM (inactive)
9 | CCN(CC)CC(C(=O)Nc1c(C)cccc1C)/C(C)=N\NC(=S)NN (stereo not given) | > 100 µM (inactive) | > 100 µM (inactive) | > 100 µM (inactive) | > 100 µM (inactive) | > 100 µM (inactive) | > 100 µM (inactive) | > 100 µM (inactive) | > 100 µM (inactive) | > 100 µM (inactive) | > 100 µM (inactive) | – | > 100 µM (inactive) | > 100 µM (inactive) | > 100 µM (inactive) | – | –
10 | Clc1cc2nc[nH]c2cc1Cl | 18.3 µM (inactive) | > 100 µM (inactive) | 36.7 µM (inactive) | > 100 µM (inactive) | > 100 µM (inactive) | > 100 µM (inactive) | > 100 µM (inactive) | 56 µM (inactive) | > 100 µM (inactive) | 93.8 µM (inactive) | > 100 µM (inactive) | > 100 µM (inactive) | > 100 µM (inactive) | > 100 µM (inactive) | > 100 µM (inactive) | –
11 | COc1cc2c[n+]3ccc4cc(OC)c(OC)cc4c3cc2cc1O | > 100 µM (inactive) | > 100 µM (inactive) | – | > 100 µM (inactive) | > 100 µM (inactive) | > 100 µM (inactive) | > 100 µM (inactive) | > 100 µM (inactive) | > 100 µM (inactive) | – | – | > 100 µM (inactive) | > 100 µM (inactive) | > 100 µM (inactive) | > 100 µM (inactive) | > 100 µM (inactive)
12 | CCOC(=O)NC(=O)c1cn(CCCOC(=O)NCCCCCCNC(=O)OCCCn2c(=O)c(C(=O)NC(=O)OCC)cn(C)c2=O)c(=O)n(C)c1=O | 22.2 µM (inactive) | > 100 µM (inactive) | > 100 µM (inactive) | – | > 100 µM (inactive) | > 100 µM (inactive) | > 100 µM (inactive) | > 100 µM (inactive) | > 100 µM (inactive) | – | > 100 µM (inactive) | > 100 µM (inactive) | > 100 µM (inactive) | > 100 µM (inactive) | – | –
13 | Cc1ccc(NC(=O)CC2Sc3ccccc3NC2=O)c(C)c1 (stereo not given) | 4.52 µM (inactive) | 12.4 µM (inactive) | 14.8 µM (inactive) | 46.7 µM (inactive) | 14.7 µM (inactive) | 23.3 µM (inactive) | 12.8 µM (inactive) | 17.4 µM (inactive) | 21.4 µM (inactive) | 12.1 µM (inactive) | 22 µM (inactive) | 13.7 µM (inactive) | 11 µM (inactive) | 18.8 µM (inactive) | 14.7 µM (inactive) | –
14 | COc1cc([C@@H]2c3cc4c(cc3[C@@H](NC(=O)c3cccc(F)c3)C3COC(=O)[C@@H]32)OCO4)cc(OC)c1O (stereo not given in full) | 1.23 µM (inactive) | 1.26 µM (inactive) | 0.207 µM (active) | 2.1 µM (inactive) | 1.29 µM (inactive) | 2.21 µM (inactive) | 0.466 µM (active) | 2.74 µM (inactive) | 1.61 µM (inactive) | 0.195 µM (active) | 38.5 µM (inactive) | 0.441 µM (active) | 2.66 µM (inactive) | 0.125 µM (active) | 0.664 µM (active) | –
15 | COC(=O)C1(O)c2ccccc2N=C2C1CCN2C (stereo not given) | 26.8 µM (inactive) | > 100 µM (inactive) | – | > 100 µM (inactive) | > 100 µM (inactive) | > 100 µM (inactive) | > 100 µM (inactive) | > 100 µM (inactive) | > 100 µM (inactive) | > 100 µM (inactive) | > 100 µM (inactive) | > 100 µM (inactive) | > 100 µM (inactive) | > 100 µM (inactive) | > 100 µM (inactive) | > 100 µM (inactive)
16 | Nc1ncnc2c1ncn2C1(CO)OC(CO)C(O)C1O (stereo not given) | > 100 µM (inactive) | > 100 µM (inactive) | > 100 µM (inactive) | – | > 100 µM (inactive) | > 100 µM (inactive) | > 100 µM (inactive) | > 100 µM (inactive) | > 100 µM (inactive) | > 100 µM (inactive) | > 100 µM (inactive) | > 100 µM (inactive) | > 100 µM (inactive) | > 100 µM (inactive) | > 100 µM (inactive) | > 100 µM (inactive)
17 | COc1cc2c(cc1OC)-c1c(cc(OC)c(OC)c1OC)C2=O | 18.2 µM (inactive) | > 100 µM (inactive) | > 100 µM (inactive) | > 100 µM (inactive) | > 100 µM (inactive) | > 100 µM (inactive) | > 100 µM (inactive) | > 100 µM (inactive) | > 100 µM (inactive) | 25.9 µM (inactive) | – | > 100 µM (inactive) | > 100 µM (inactive) | > 100 µM (inactive) | > 100 µM (inactive) | > 100 µM (inactive)
18 | Cc1cc(C(=O)N2CCN(Cc3ccccc3)CC2)c(C)o1 | > 100 µM (inactive) | > 100 µM (inactive) | – | > 100 µM (inactive) | – | > 100 µM (inactive) | > 100 µM (inactive) | > 100 µM (inactive) | > 100 µM (inactive) | > 100 µM (inactive) | > 100 µM (inactive) | > 100 µM (inactive) | > 100 µM (inactive) | > 100 µM (inactive) | > 100 µM (inactive) | > 100 µM (inactive)
19 | COC(=O)C1CSC(c2csc(CCN)n2)=N1 (stereo not given) | > 100 µM (inactive) | > 100 µM (inactive) | > 100 µM (inactive) | > 100 µM (inactive) | > 100 µM (inactive) | > 100 µM (inactive) | > 100 µM (inactive) | > 100 µM (inactive) | – | – | > 100 µM (inactive) | > 100 µM (inactive) | > 100 µM (inactive) | > 100 µM (inactive) | > 100 µM (inactive) | > 100 µM (inactive)

Reference: ChEMBL document CHEMBL1201862, “PubChem BioAssay data set” (2004)
